“Also recorded” adds a separate entry of the source. No end group written: not given here.

We go through eleven molecules from patent US6903183B1, “Compositions and methods for regulation of steroidogenesis” (Texas Tech University Health Services Center, priority 1996, dated 2005).

Experiment [1] concerns StAR protein. As to the kind of experiment: Immunoblot analysis of 30 kDa (StAR) protein in MA-10 cells. Type of experiment: cell-based, mouse. As for the experimental part: Immunoblot Analysis. Mitochondria were isolated from either MA-10 or COS 1 cells transfected with either pCMV or pCMV+30 kDa cDNA 48 hours post-transfection. For experiments in which progesterone production was measured (as described above), cells were solubilized directly in the well with 0.1% SDS, the cell homogenates were collected and combined from all 8 wells, and the protein was precipitated using trichloracetic acid. The protein was solubilized in sample buffer (25 mM Tris/Cl, pH 6.8, 1% SDS, 5% β-mercaptoethanol, 1 mM EDTA, 4% glycerol, and 0.01% bromophenol blue) and loaded onto a 12.5% SDS-PAGE minigel (Mini-Protein II System, Bio-Rad, Richmond, Calif.). […] The membrane was washed as before, and the specific signal was detected by chemiluminescence using the Renaissance kit from Du Pont-NEN.
In order to verify that the cDNA was being expressed in eukaryotic cells, COS 1 cells were used to transfect the pCMV+30 kDa cDNA since the pCMV plasmid can be replicated in these cells and approximately 80% of the cells are transfected with plasmid DNA based on the expression of reporter protein. Forty-eight hours post-transfection, mitochondria were isolated and the 30 kDa protein expression was determined by immunoblot analysis. […] In addition, a 36.5 kDa protein was detected in the COS 1 cells which would be consistent with the precursor protein. […]

A further experiment has as its system StAR mRNA. As to the kind of experiment: Northern blot analysis of StAR mRNA in MA-10 cells. Type of experiment: cell-based, mouse. On the procedure:
MA-10 cells were stimulated with Bt2cAMP and StAR mRNA levels were determined by Northern blot analysis. Within 1 hour of Bt2cAMP stimulation, two major transcripts of approximately 3400 nt and 1600 nt, and one minor transcript of 2700 nt, were detected. […] Subsequent to the marked mRNA induction, the greatest induction (10x) in StAR protein was detected after 4 hours of Bt2cAMP stimulation by immunoblot analysis. Comparatively lower levels of StAR could be detected after 1 hour of hormone stimulation with maximal levels accumulated within 8 hours.

Experiment [2] relates to StAR protein. The experiment can be described thus: Synthesis of StAR protein in MA-10 cells after CRH, dbcAMP or hCG. Type of experiment: cell-based, mouse. The conditions noted are these: for time of maximal response following stimulation: CRH at 1 μM.
The subject of experiment [3] is StAR protein. As to the kind of experiment: Immunoblot of StAR protein expression in H295R cells. The format is cell-based, human. Particulars: for amount of StAR protein: treatment of H295R cells with agonist. On the procedure:
(§1) FIG. 4. Effect of KN93 on agonist-stimulated aldosterone production and StAR protein expression in H295R cells. […] The medium aldosterone content was determined by R.I.A. and normalized to the tissue culture well protein content. Data points represent the mean ±SE of values from six separate culture wells expressed as fold increase over basal. Significant inhibition relative to the control response is indicated at *p<0.01. StAR protein was examined using equivalent amounts of total cellular lysate (30 μg) by immunoblot analysis as described in the Methods. Results are representative of those obtained from three separate experiments.
For each treatment, cells were solubilized as described above and an equivalent amount of protein (30 μg) for each sample were separated by SDS-PAGE (12.5%) and then electrophoretically transferred to polyvinylidene difluoride membrane as previously described (Clark et al (1994) J. Biol. Chem., 269:2831-322, reference specifically incorporated herein by reference). Immunoblot analysis was as described (Id) using a rabbit sera containing the specific StAR antipeptide antibody (see ANTIBODIES infra) as the primary label and a donkey anti-rabbit IgG conjugated with horseradish peroxidase (Amersham, Arlington Heights, Ill.). The specific signal was detected by chemiluminescence assays using the Renaissance kit from DuPont NEN (Boston, Mass.) and the StAR specific bands were quantitated by BioImage Visage 2000 computer-assisted image analysis (BioImage, Ann Arbor, Mich.). Different exposure times were used to insure linearity.
A general note: Immunoblotting shows a protein as a band on a membrane.

Experiment [4] concerns bovine zona glomerulosa cells. As to the kind of experiment: Cholesterol content of submitochondrial fractions (cholesterol oxidase assay). The format is cell-based. On the procedure: Freshly-prepared bovine zona glomerulosa cells were stimulated with Ang II (10 nM) or submitted to a cytosolic Ca^2+ clamp (600 nM) for 2 h. Mitochondria were isolated and subfractionated into outer membranes (OM), inner membranes (IM) and contact sites (CS). Cholesterol content was determined by the cholesterol oxidase assay.
Freshly-prepared bovine zona gomerulosa cells were stimulated with Ang II (10 nM) or submitted to a cytosolic Ca^2+ clamp (600 nM) for 2 h, as described in Example 9. Mitochondria were isolated and subfractionated into outer membranes (OM), inner membranes (IM) and contact sites (CS). Cholesterol content was determined by the cholesterol oxidase assay, also as described in Example 9.

Experiment [5] deals with StAR protein. The experiment can be described thus: Western blot of StAR protein in mitochondria of glomerulosa cells. The format is cell-based, bovine.
The test system of a further experiment is H295R cells. The experiment can be described thus: Agonist-stimulated aldosterone production (steroidogenesis) in H295R cells. Type of experiment: cell-based, human. On the procedure:
as §1
The human adrenocortical carcinoma-derived cell line (H295R) was used. This cell line secretes multiple steroids, including aldosterone and cortisol. […]
Subcultured cells were maintained 24 hours in DME/F12 medium containing 0.2% calf serum, 0.01% BSA and antibiotics (low serum). […] The aldosterone and cortisol contents of medium recovered from each well were determined with aldosterone and cortisol standards prepared in low-serum medium by commercial aldosterone and cortisol radioimmunoassays (Diagnostic System Laboratories; Webster, Tex.). Results of aldosterone and cortisol assays were normalized to cellular protein per well, expressed as pmol per mg cell protein and transformed to percentage of the control response where indicated. […]

In experiment [6] the test system is mitochondria isolated from MA-10 mouse Leydig tumor cells. The experiment can be described thus: In vitro reconstituted system: pregnenolone synthesis by isolated mitochondria. The format is biochemical. Particulars: protein added to isolated mitochondria. The text has this: Rat heart mitochondria were used for the import assay with bovine StAR, indicating import of StAR is not dependent upon factors specific to mitochondria isolated from steroidogenic tissues. The ability of StAR to increase steroid production has also been confirmed in an in vitro reconstituted system.

In experiment [7] the target is protein complex purified from MA-10 cell mitochondrial membranes. The experiment can be described thus: competition against 35S-labeled StAR signal peptide on liposomes carrying the complex, gel filtration. In general terms: SEC sorts molecules by how far they enter the pores of the column.
Another experiment deals with Y-1 adrenal tumor cells. The experiment can be described thus: Overexpression of DAX-1 in Y-1 adrenal tumor cells. Type of experiment: cell-based, mouse.

For `CCCC(=O)Nc1ncnc2c1ncn2[C@@H]1O[C@@H]2COP(=O)(O)O[C@H]2[C@H]1OC(=O)CCC` [Bt2cAMP, N^6, 2′-O-dibutyryladenosine-3′:5′-cyclic monophosphate], the “time to maximal accumulated StAR protein levels” value in the experiment with StAR protein [1] is at most 8 h. Moreover, the StAR protein induction with StAR protein [1] (after 4 hours of stimulation) worked out at 10 x. The “time to maximal StAR mRNA levels” value in the experiment on StAR mRNA was found to be 6 h. In addition, the “StAR mRNA induction” value in the experiment with StAR mRNA (after 2 hours of stimulation) amounted to 20 x. In the experiment on StAR protein [2], the “concentration of maximal response (StAR synthesis)” value came out at 1 µM, the “synthesis of the StAR protein” value was “dose-dependent increase” and the “time of maximal response following stimulation” value turned out to be 6 h.
For `COC(=O)C1=C(C)NC(C)=C([N+](=O)[O-])C1c1ccccc1C(F)(F)F` (stereo not drawn) [Bay K, (=)-Bay K 8644], in the experiment on StAR protein [3], the “amount of StAR protein” value is “increased; also recorded: elevated”.
Take `[Cl-].[K+]` [K^+, potassium chloride]: the “amount of StAR protein” value in the experiment on StAR protein [3] was “increased; also recorded: elevated”.
Regarding `[Ca+2]` [Ca^2+], the “cholesterol content of OM” value in experiment [4] (cytosolic Ca2+ clamp 600 nM, 2 h, n=5) is recorded as 54±24 % of controls. Also, in the experiment with StAR protein [5] (Ca2+ stimulation, cycloheximide-sensitive, n=5), the “StAR protein in mitochondrial extracts” value is 141±14 % of controls.
`COc1ccc(S(=O)(=O)N(CCO)c2ccccc2CN(C)CC=Cc2ccc(Cl)cc2)cc1` [KN93, 2-[N-(2-hydroxyethyl)-N-(4-methoxybenzenesulfonyl)]amino-N-(4-chlorocinnamyl)-N-methylbenzylamine]: in the experiment on StAR protein [3] (KN93 between 1 and 3 μM), the “induction of StAR protein by Ang II, K+, or Bay K” value is “did not affect”. In addition, the “agonist-induction of StAR protein expression” value with StAR protein [3] (co-treatment with KN93 3 μM) is on record as “not affected”. Moreover, in the experiment on H295R cells (KN93 3 μM), the aldosterone production result is recorded as “potently inhibited”. Further, in the experiment on H295R cells (KN93 between 1 and 3 μM), the block of steroidogenesis lay within 60 to 80%.
Consider “[Val^5]-Angiotensin II acetate (DRVYVHPF; also: acetate salt; UniProt P01019 25-32, looked up, variant I5V) [Ang II]”, for which, in the experiment with StAR protein [3], the “amount of StAR protein” value is listed as “increased; also recorded: elevated”. For the same molecule, the OM cholesterol entry in experiment [4] (Ang II 10 nM, 2 h) is on record as “No significant changes”. The “cholesterol in contact sites (CS)” value in experiment [4] (Ang II 10 nM, 2 h, n=3) is listed as 172±28 % of controls. Moreover, the StAR protein with StAR protein [5] (Ang II stimulated glomerulosa cells, n=2) was 157 % of controls. For the same molecule, in the experiment on StAR protein [5] (Ang II stimulation), the “StAR in IM” value is reported as “increased”.
With “CRH: Corticotropin-Releasing Hormone (SEEPPISLDLTFHLLREVLEMARAEQLAQQAHSNRKLMEII; ends and bridges not checked; UniProt P06850 154-194, looked up)”, in the experiment with StAR protein [2], the “concentration of maximal response (StAR synthesis)” value is 1 µM, the “synthesis of the StAR protein” value is reported as “dose-dependent increase” and the “time of maximal response following stimulation” value is 4 h. Moreover, the “level of StAR synthesis versus maximal doses of CRH or hCG alone” value in the experiment with StAR protein [2] (in the presence of hCG) is “higher level”.
In the case of `C[C@@H]1C[C@@H]([C@H](O)CC2CC(=O)NC(=O)C2)C(=O)[C@@H](C)C1` [Cycloheximide], the “Ca2+-activated cholesterol transfer to IM” value in experiment [4] is reported as “significantly reduced”. In addition, the “effect on Ang II increase of StAR in IM” value in the experiment with StAR protein [5] is on record as “prevented”.

B1: adrenodoxin: another mitochondrial imported protein (protein, UniProt P10109 61-184, looked up)
Adrenodoxin, mitochondrial: SSSEDKITVHFINRDGETLTTKGKVGDSLLDVVVENNLDIDGFGACEGTLACSTCHLIFEDHIYEKLDAITDEENDMLDLAYGLTDRSRLGCQICLTKSMDNMTVRVPETVADARQSIDVGKTS
On to B1, for which the pregnenolone synthesis entry in experiment [6] is recorded as “not affected”.
In the case of MFLATFKLCAGSSYRHMRNMKGLRHQ [StAR signal peptide (unlabeled, commercially synthesized)], the reduction of total radioactivity in the liposome fraction in experiment [7] came out at 65%.

B2: DAX-1: transcription repressor, unusual member of the nuclear hormone receptor superfamily, overexpressed in Y-1 cells (protein, UniProt Q61066 1-472, looked up)
Nuclear receptor subfamily 0 …: MAGEDHPWQGSILYNLLMSAKQKHASQEEREVRLGAQCWGCACGAQPVLGGERLSGGQARSLLYRCCFCGENHPRQGGILYSMLTNARQPSVATQAPRARFGAPCWGCACGSAEPLVGREGLPAGQAPSLLYRCCFCGEEHPRQGSILYSLLTSAQQTHVSREAPEAHRRGEWWQLSYCTQSVGGPEGLQSTQAMAFLYRSYVCGEEQPQQISVASGTPVSADQTPATPQEQPRAPWWDASPGVQRLITLKDPQVVCEAASAGLLKTLRFVKYLPCFQILPLDQQLVLVRSCWAPLLMLELAQDHLHFEMMEIPETNTTQEMLTTRRQETEGPEPAEPQATEQPQMVSAEAGHLLPAAAVQAIKSFFFKCWSLNIDTKEYAYLKGTVLFNPDLPGLQCVKYIEGLQWRTQQILTEHIRMMQREYQIRSAELNSALFLLRFINSDVVTELFFRPIIGAVSMDDMMLEMLCAKL
Take B2: in the experiment with Y-1 adrenal tumor cells, the “StAR mRNA and protein synthesis” value is given as “inhibition”; the steroid synthesis result is “complete inhibition”.
